In US7803377B2, “Anti-DLL4 antibodies and methods using same” (Genentech, Inc., priority 2006, dated 2010):

Columns and labels:
[1] = molecular target: T1, endogenously expressed DLL4 (Homo sapiens, UniProt Q9NR61); assay: FACS analysis of HUVECs transfected with control or DLL4-specific siRNA; settings: antibody 2 μg/ml, binding reduced with DLL4 siRNA
T1 construct: endogenous in cells; host or cells: HUVEC
Description: RNA interference. SMARTpool small interfering RNA (siRNA) duplexes targeting human DLL4 and Si Control Non-Target siRNA #2 were purchased from Dharmacon. Transfection of siRNR duplexes (50 nM) was done with HUVECs at 40% confluency using OptiMEM-1® and Lipfectamine™ 2000 (Invitrogen). FACS analysis was done 48 hr after siRNA transfection. The sequences of the 4 anti-DLL4 SMART pool siRNA were as follows:
FACS analysis of HUVECs transfected with control or DLL4-specific siRNA.

[2] = system: HUVECs; assay: HUVEC fibrin gel bead assay; format: cell-based, human; settings: anti-DLL4 antibody 5 μg/ml, DBZ 0.08 μM
Description: HUVEC fibrin gel bead assay. Details of the HUVEC fibrin gel bead assay have been described (Nakatsu, M. N. et al. Microvasc Res 66, 102-12 (2003)). Briefly, Cytodex™ 3 beads (Amersham Pharmacia Biotech) were coated with 350-400 HUVECs per bead. About 200 HUVEC-coated beads were imbedded in fibrin clot in one well of 12-well tissue culture plate. 8×10^4 SF cells were plated on top of the clot. Assays were terminated between day 7 and day 9 for immunostaining and imaging. In some experiments, HUVEC sprouts were visualized by staining with Biotin-anti-CD31 (clone WM59, eBioscience) and strepavidin-Cy3. For HUVEC nuclei staining, fibrin gels were fixed overnight in 2% paraformaldehyde (PFA), and stained with 4′,6-diamidino-2-phenylindole (DAPI, Sigma). For Ki67 staining, fibrin gels were treated with 10× trypsin-EDTA for 5 min to remove the top layer SF, neutralized with 10% FBS in PBS, and fixed overnight in 4% PFA. Fibrin gels were then blocked with 10% goat serum in PBST for 4 hr, incubated overnight with rabbit anti-mouse Ki67 (Ready-To-Use, clone Sp6, LabVision), followed by secondary detection with anti-rabbit IgG-Cy3 (Jackson ImmunoResearch). All overnight incubations were done at 4° C. […]

[3] = system: retinal vasculature; assay: Mouse neonatal retina study; format: in vivo
Description: Mouse neonatal retina study. […] Eyes were collected on P5, and fixed with 4% PFA in PBS overnight. The dissected retinas were blocked with 10% goat serum in PBST for 3 hrs, then incubated overnight with primary antibodies. The primary cocktail included biotinylated isolectin B4 (25 μg/ml, Bandeiraea simplicifolia; Sigma), and one of the following: rabbit anti-mouse Ki67 (1:1, ready-to-use, clone Sp6, Lab Vision), or mouse Cy3-conjugated anti-alpha SMA (1:2000, Sigma-Aldrich), with 10% serum in PBLEC (1% Triton X-100, 0.1 mM CaCl2, 0.1 mM MgCl2, 0.1 mM MnCl2, in PBS pH6.8). Retinas were then washed in PBST, and incubated overnight with secondary antibody combination of Alexa Fluor® 488 streptavidin (1:200; Molecular Probes) and Cy3-anti-rabbit IgG (1:200; Jackson ImmunoResearch). After staining was completed, retinas were post fixed with 4% PFA in PBS. All overnight incubations were done at 4° C. Images of flat mounted retinas were captured by confocal fluorescence microscopy.
Early postnatal mouse retina develops a stereotypic vascular pattern in a well-defined sequence of events (Stone, J. & Dreher, Z. J Comp Neurol 255, 35-49 (1987); Gerhardt, H. et al. J Cell Biol 161, 1163-77 (2003); Fruttiger, M. Invest Opthalmol Vis Sci 43, 522-7 (2002)). […] Therefore, this hyperproliferative phenotype of retinal ECs upon DLL4 blockade in neonatal mice corroborated the in vitro findings.

[4] = system: mouse lymphoma EL4 cells; assay: Tumor model EL4; format: in vivo; settings: 5 mg/kg, IP, twice weekly after establishment of the tumors
Description: Tumor models. Beige nude female mice of 8- to 10-week-old were used. To obtain subcutaneous tumors, mice were injected with 0.1 ml cell suspension containing 50% matrigel (BD Bioscience) into the right posterior flank. 5×10^6 human colon cancer HM7 cells, 10×10^6 human colon carcinoma Colo205 cells, 10×10^6 human lung carcinoma Calu6 cells, 10×10^6 human lung carcinoma MV-522 cells, 10×10^6 mouse leukemia WEHI-3 cells, 10×10^6 mouse lymphoma EL4 cells, 10×10^6 human ovarian cancer SK-OV-3 X1 cells, 10×06 mouse lung cancer LL2 cells, 10×10^6 leukemia/lymphoma EL4 cells, or 10×10^6 non-small lung cancer H1299 cells were injected into each mouse. For human melanoma MDA-MB-435 model, mice were injected into the mammary fat pad with 0.1 ml cell (5×10^6) suspension containing 50% matrigel. […] For the following tumor models, each test mouse received a subcutaneous tumor fragment (1 mm^3) implanted in the right flank: non-small lung cancer SKMES-1, human breast cancer MX-1, human colorectal cancer SW620 and human adenocarcinoma LS174T. The tumor growth was quantitated by caliper measurements. Tumor volume (mm^3) was determined by measuring the length (l) and width (w) and calculating the volume (V=lw2/2). 10 to 15 animals were included in each group. Statistical comparison of treatment groups was performed using two-tailed Student's t-test. […]

[5] = neonatal CD1 mice, 10 mg/kg i.p. on P1 and P3, eyes collected P5
[6] = neonatal mice, 10 mg/kg i.p. on P1 and P3

YW26.82: affinity matured anti-DLL4 monoclonal antibody; HVR-H1/H2/H3 SEQ ID NO:1, 8, 9; HVR-L1/L2/L3 SEQ ID NO:10, 11, 18
binding to endogenously expressed DLL4 by FACS [1]: specifically bound to endogenously expressed DLL4 | HUVEC sprouting (length and number of sprouts) ([2]; fibrin gel with co-cultured SF cells): markedly increased the length and number of sprouts | Ki67 staining, HUVEC proliferation ([2]; fibrin gel): caused hyperproliferation of HUVECs | Ki67 labeling in retinal ECs [3, 5]: significant increase of Ki67 labeling in ECs | accumulation of ECs in neonatal retina [3, 5]: massive accumulation of ECs | anti-α smooth muscle actin (ASMA) staining of retinal arteries [3, 6]: completely absent | pattern of radially alternating arteries and veins in retina [3, 6]: severely disrupted | tumor growth, single agent [4]: inhibited tumor growth alone
